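Growth conditions: 96-well plates. Treatment: test compound, 48 hours, 5 concentrations. Analysis: linear interpolation between bracketing concentrations; unreached endpoints set to highest concentration. Definition used: TGI = concentration required for complete inhibition of growth.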
Assays:
Assay in all cases: growth of human tumour cells (NCI), 48 h
[1] = test system: HCT-116 colon
[2] = test system: M19-MEL melanoma
[3] = test system: HCT-15 colon
[4] = test system: SNB-19 CNS
[5] = test system: SNB-75 CNS
[6] = test system: SF-295 CNS
[7] = test system: SN12C renal
[8] = test system: RPMI-8226 leukemia
[9] = test system: SF-539 CNS
[10] = test system: SK-MEL-5 melanoma
[11] = test system: LOX IMVI melanoma
[12] = test system: DLD-1 colon
[13] = test system: KM20L2 colon
[14] = test system: HOP-92 NSCLC
[15] = test system: SW-620 colon
[16] = test system: SK-MEL-28 melanoma
[17] = test system: SR leukemia
[18] = test system: HT29 colon
[19] = test system: HOP-18 NSCLC
[20] = test system: OVCAR-4 ovarian
[21] = test system: U251 CNS
[22] = test system: UO-31 renal
[23] = test system: KM12 colon
[24] = test system: SNB-78 CNS
[25] = test system: A549 NSCLC
[26] = test system: OVCAR-3 ovarian
[27] = test system: A498 renal
[28] = test system: XF 498 CNS
[29] = test system: NCI-H460 lung
[30] = test system: RXF 393 renal
[31] = test system: MALME-3M melanoma
[32] = test system: EKVX NSCLC
[33] = test system: 786-0 renal
[34] = test system: DMS 273 small cell lung
[35] = test system: M14 melanoma
[36] = test system: NCI-H23 lung
[37] = test system: NCI-H226 lung
[38] = test system: K-562 leukemia
[39] = test system: HCC-2998 colon
[40] = test system: CAKI-1 renal
[41] = test system: MOLT-4 leukemia
[42] = test system: DMS 114 small cell lung
[43] = test system: HL-60(TB) leukemia
[44] = test system: OVCAR-5 ovarian
[45] = test system: SK-MEL-2 melanoma
[46] = test system: ACHN renal
[47] = test system: TK-10 renal
[48] = test system: UACC-62 melanoma
[49] = test system: CCRF-CEM leukemia
[50] = test system: OVCAR-8 ovarian
[51] = test system: COLO 205 colon
[52] = test system: SK-OV-3 ovarian
[53] = test system: UACC-257 melanoma
[54] = test system: HOP-62 NSCLC
[55] = test system: NCI-H522 lung
[56] = test system: SF-268 CNS
[57] = test system: RXF-631 renal
[58] = test system: LXFL 529 NSCLC
[59] = test system: IGROV1 ovarian

SMILES: S=c1cc(S)sc2c1c(=S)sc1nc3ccccn3c(=S)c12
- TGI [1]: > 100 µM
- TGI [2]: > 100 µM
- TGI [3]: > 100 µM
- TGI [4]: > 100 µM
- TGI [5]: > 100 µM
- TGI [6]: > 100 µM
- TGI [7]: > 100 µM
- TGI [8]: > 100 µM
- TGI [9]: > 100 µM
- TGI [10]: > 100 µM
- TGI [11]: > 100 µM
- TGI [12]: > 100 µM
- TGI [13]: > 100 µM
- TGI [14]: > 100 µM
- TGI [15]: > 100 µM
- TGI [16]: > 100 µM
- TGI [17]: > 100 µM
- TGI [18]: > 100 µM
- TGI [19]: > 100 µM
- TGI [20]: > 100 µM
- TGI [21]: > 100 µM
- TGI [22]: > 100 µM
- TGI [23]: > 100 µM
- TGI [24]: > 100 µM
- TGI [25]: > 100 µM
- TGI [26]: > 100 µM
- TGI [27]: > 100 µM
- TGI [28]: > 100 µM
- TGI [29]: 92.1 µM
- TGI [30]: > 100 µM
- TGI [31]: > 100 µM
- TGI [32]: > 100 µM
- TGI [33]: > 100 µM
- TGI [34]: > 100 µM
- TGI [35]: > 100 µM
- TGI [36]: > 100 µM
- TGI [37]: > 100 µM
- TGI [38]: > 100 µM
- TGI [39]: > 100 µM
- TGI [40]: > 100 µM
- TGI [41]: > 100 µM
- TGI [42]: 40.1 µM
- TGI [43]: 97.3 µM
- TGI [44]: > 100 µM
- TGI [45]: > 100 µM
- TGI [46]: > 100 µM
- TGI [47]: > 100 µM
- TGI [48]: > 100 µM
- TGI [49]: > 100 µM
- TGI [50]: > 100 µM

SMILES: O=CC[C@H]1CCc2ccccc2C12CCC(=O)CC2
- TGI [1]: > 100 µM
- TGI [51]: > 100 µM
- TGI [2]: > 100 µM
- TGI [3]: > 100 µM
- TGI [52]: > 100 µM
- TGI [4]: > 100 µM
- TGI [5]: > 100 µM
- TGI [6]: > 100 µM
- TGI [53]: > 100 µM
- TGI [7]: > 100 µM
- TGI [8]: > 100 µM
- TGI [9]: > 100 µM
- TGI [10]: > 100 µM
- TGI [11]: > 100 µM
- TGI [12]: > 100 µM
- TGI [13]: > 100 µM
- TGI [14]: > 100 µM
- TGI [15]: > 100 µM
- TGI [18]: > 100 µM
- TGI [54]: > 100 µM
- TGI [20]: > 100 µM
- TGI [22]: > 100 µM
- TGI [23]: > 100 µM
- TGI [25]: > 100 µM
- TGI [26]: > 100 µM
- TGI [27]: > 100 µM
- TGI [28]: > 100 µM
- TGI [29]: > 100 µM
- TGI [55]: > 100 µM
- TGI [31]: > 100 µM
- TGI [56]: > 100 µM
- TGI [33]: > 100 µM
- TGI [57]: > 100 µM
- TGI [35]: > 100 µM
- TGI [58]: > 100 µM
- TGI [37]: > 100 µM
- TGI [38]: > 100 µM
- TGI [39]: > 100 µM
- TGI [40]: > 100 µM
- TGI [41]: > 100 µM
- TGI [42]: > 100 µM
- TGI [43]: 65.8 µM
- TGI [44]: > 100 µM
- TGI [45]: > 100 µM
- TGI [46]: > 100 µM
- TGI [48]: > 100 µM
- TGI [59]: > 100 µM
- TGI [49]: > 100 µM
- TGI [50]: > 100 µM

SMILES: CC(C)C(C)C(C)(C)P(C)(C)=O (stereo not given)
- TGI [1]: > 100 µM
- TGI [2]: > 100 µM
- TGI [3]: > 100 µM
- TGI [52]: > 100 µM
- TGI [4]: > 100 µM
- TGI [5]: > 100 µM
- TGI [53]: > 100 µM
- TGI [7]: > 100 µM
- TGI [9]: > 100 µM
- TGI [11]: > 100 µM
- TGI [12]: > 100 µM
- TGI [13]: > 100 µM
- TGI [16]: > 100 µM
- TGI [18]: > 100 µM
- TGI [54]: > 100 µM
- TGI [20]: > 100 µM
- TGI [21]: > 100 µM
- TGI [22]: > 100 µM
- TGI [23]: > 100 µM
- TGI [24]: > 100 µM
- TGI [26]: > 100 µM
- TGI [28]: > 100 µM
- TGI [29]: > 100 µM
- TGI [30]: > 100 µM
- TGI [31]: > 100 µM
- TGI [56]: > 100 µM
- TGI [32]: > 100 µM
- TGI [35]: > 100 µM
- TGI [36]: > 100 µM
- TGI [58]: > 100 µM
- TGI [37]: > 100 µM
- TGI [39]: > 100 µM
- TGI [42]: > 100 µM
- TGI [44]: > 100 µM
- TGI [45]: > 100 µM
- TGI [46]: > 100 µM
- TGI [47]: > 100 µM
- TGI [48]: > 100 µM

SMILES: CC(C)(C)c1cc2c3c(c1)C(C(F)(F)F)(C(F)(F)F)O[Te]3(C)OC2(C(F)(F)F)C(F)(F)F
- TGI [1]: > 100 µM
- TGI [51]: > 100 µM
- TGI [2]: > 100 µM
- TGI [3]: > 100 µM
- TGI [52]: > 100 µM
- TGI [4]: > 100 µM
- TGI [6]: > 100 µM
- TGI [53]: > 100 µM
- TGI [7]: > 100 µM
- TGI [8]: > 100 µM
- TGI [9]: > 100 µM
- TGI [11]: > 100 µM
- TGI [12]: > 100 µM
- TGI [13]: > 100 µM
- TGI [15]: > 100 µM
- TGI [16]: > 100 µM
- TGI [17]: > 100 µM
- TGI [18]: > 100 µM
- TGI [54]: > 100 µM
- TGI [19]: > 100 µM
- TGI [20]: > 100 µM
- TGI [21]: > 100 µM
- TGI [22]: > 100 µM
- TGI [23]: > 100 µM
- TGI [24]: > 100 µM
- TGI [25]: > 100 µM
- TGI [26]: > 100 µM
- TGI [28]: > 100 µM
- TGI [29]: > 100 µM
- TGI [55]: > 100 µM
- TGI [30]: > 100 µM
- TGI [31]: > 100 µM
- TGI [56]: > 100 µM
- TGI [32]: > 100 µM
- TGI [33]: > 100 µM
- TGI [34]: > 100 µM
- TGI [35]: > 100 µM
- TGI [36]: > 100 µM
- TGI [58]: > 100 µM
- TGI [37]: > 100 µM
- TGI [38]: > 100 µM
- TGI [39]: > 100 µM
- TGI [40]: > 100 µM
- TGI [41]: > 100 µM
- TGI [42]: > 100 µM
- TGI [43]: > 100 µM
- TGI [44]: > 100 µM
- TGI [45]: > 100 µM
- TGI [46]: > 100 µM
- TGI [47]: > 100 µM
- TGI [48]: > 100 µM
- TGI [59]: > 100 µM
- TGI [49]: > 100 µM

From PubChem BioAssay (NCI)
